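All cell lines were grown in 96-well plates and treated with compound for 48 hours. Here, GI50 denotes the concentration required for 50% inhibition of growth. At the TGI there is no net growth.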
Tests used:
Experiment in all cases: DTP human tumour cell line panel, 48 h
ACHN renal = test system: ACHN renal
BT-549 breast = test system: BT-549 breast
HS 578T breast = test system: HS 578T breast
M14 melanoma = test system: M14 melanoma
NCI-H460 lung = test system: NCI-H460 lung
RXF 393 renal = test system: RXF 393 renal
SK-MEL-5 melanoma = test system: SK-MEL-5 melanoma
SNB-19 CNS = test system: SNB-19 CNS
UACC-62 melanoma = test system: UACC-62 melanoma
HOP-92 NSCLC = test system: HOP-92 NSCLC

O=C1OC(=O)C(c2c[nH]c3ccccc23)=C1c1c[nH]c2ccccc12
GI50 (ACHN renal): > 25 µM
TGI (ACHN renal): > 25 µM
GI50 (BT-549 breast): > 25 µM
TGI (BT-549 breast): > 25 µM
GI50 (HS 578T breast): > 25 µM
TGI (HS 578T breast): > 25 µM
GI50 (M14 melanoma): > 25 µM
TGI (M14 melanoma): > 25 µM
GI50 (NCI-H460 lung): > 25 µM
TGI (NCI-H460 lung): > 25 µM
GI50 (RXF 393 renal): > 25 µM
TGI (RXF 393 renal): > 25 µM
GI50 (SK-MEL-5 melanoma): > 25 µM
TGI (SK-MEL-5 melanoma): > 25 µM
GI50 (SNB-19 CNS): > 25 µM
TGI (SNB-19 CNS): > 25 µM
GI50 (UACC-62 melanoma): > 25 µM
TGI (UACC-62 melanoma): > 25 µM

CNC(=O)OCc1nc(SC2CCCCO2)n(C)c1COC(=O)NC (stereo not drawn)
TGI (HOP-92 NSCLC): > 100 µM
TGI (M14 melanoma): > 100 µM
TGI (NCI-H460 lung): > 100 µM
TGI (RXF 393 renal): > 100 µM
TGI (SK-MEL-5 melanoma): > 100 µM
TGI (SNB-19 CNS): > 100 µM
TGI (UACC-62 melanoma): > 100 µM

NC(=S)N/N=C(/CC(=O)c1ccccc1)C(=O)Nc1ccc(Cl)c(Cl)c1
TGI (ACHN renal): > 100 µM
TGI (HOP-92 NSCLC): > 100 µM
TGI (M14 melanoma): > 100 µM
TGI (NCI-H460 lung): > 100 µM
TGI (RXF 393 renal): > 100 µM
TGI (SK-MEL-5 melanoma): > 100 µM
TGI (SNB-19 CNS): > 100 µM
TGI (UACC-62 melanoma): > 100 µM

COc1ccccc1NC(=O)C1=C(C)NC(C)=C(C(=O)Nc2ccccc2OC)C1c1ccccc1F
TGI (ACHN renal): > 100 µM
TGI (HOP-92 NSCLC): > 100 µM
TGI (M14 melanoma): > 100 µM
TGI (NCI-H460 lung): > 100 µM
TGI (SK-MEL-5 melanoma): > 100 µM
TGI (SNB-19 CNS): > 100 µM
TGI (UACC-62 melanoma): > 100 µM

COC(=O)CCC(NC(=S)N/N=C(\C)c1nccs1)C(=O)OC (stereo not drawn)
TGI (ACHN renal): > 100 µM
TGI (HOP-92 NSCLC): > 100 µM
TGI (M14 melanoma): > 100 µM
TGI (NCI-H460 lung): > 100 µM
TGI (RXF 393 renal): > 100 µM
TGI (SK-MEL-5 melanoma): > 100 µM
TGI (SNB-19 CNS): > 100 µM
TGI (UACC-62 melanoma): > 100 µM

CCCc1[nH]nc(CCC(=O)N(Cc2ccccc2)Cc2ccccc2)c1CC
TGI (ACHN renal): > 100 µM
TGI (M14 melanoma): > 100 µM
TGI (NCI-H460 lung): > 100 µM
TGI (RXF 393 renal): > 100 µM
TGI (SK-MEL-5 melanoma): > 100 µM
TGI (SNB-19 CNS): > 100 µM
TGI (UACC-62 melanoma): > 100 µM

CC(C)C(=O)Nc1nc2nc[nH]c2c(=O)[nH]1
TGI (ACHN renal): > 100 µM
TGI (HOP-92 NSCLC): > 100 µM
TGI (M14 melanoma): > 100 µM
TGI (NCI-H460 lung): > 100 µM
TGI (RXF 393 renal): > 100 µM
TGI (SK-MEL-5 melanoma): > 100 µM
TGI (SNB-19 CNS): > 100 µM
TGI (UACC-62 melanoma): > 100 µM

O=C([O-])c1ccccc1Nc1ccccn1.O=C([O-])c1ccccc1Nc1ccccn1.[Ni+2]
GI50 (ACHN renal): > 100 µM
TGI (ACHN renal): > 100 µM
GI50 (HOP-92 NSCLC): 37.1 µM
TGI (HOP-92 NSCLC): 92.8 µM
GI50 (M14 melanoma): > 100 µM
TGI (M14 melanoma): > 100 µM
GI50 (NCI-H460 lung): > 100 µM
TGI (NCI-H460 lung): > 100 µM
GI50 (RXF 393 renal): > 100 µM
TGI (RXF 393 renal): > 100 µM
GI50 (SK-MEL-5 melanoma): 73.9 µM
TGI (SK-MEL-5 melanoma): > 100 µM
GI50 (SNB-19 CNS): > 100 µM
TGI (SNB-19 CNS): > 100 µM
GI50 (UACC-62 melanoma): > 100 µM
TGI (UACC-62 melanoma): > 100 µM

CNS(=O)(=O)NN(C)S(=O)(=O)c1ccc(F)cc1
TGI (ACHN renal): > 100 µM
TGI (HOP-92 NSCLC): > 100 µM
TGI (M14 melanoma): > 100 µM
TGI (NCI-H460 lung): > 100 µM
TGI (RXF 393 renal): > 100 µM
TGI (SK-MEL-5 melanoma): > 100 µM
TGI (SNB-19 CNS): > 100 µM
TGI (UACC-62 melanoma): > 100 µM

CCCCCCCCCc1cc(=O)c2ccc(OCc3ccccc3)cc2o1
TGI (ACHN renal): > 100 µM
TGI (HOP-92 NSCLC): > 100 µM
TGI (M14 melanoma): > 100 µM
TGI (NCI-H460 lung): > 100 µM
TGI (RXF 393 renal): > 100 µM
TGI (SK-MEL-5 melanoma): > 100 µM
TGI (SNB-19 CNS): > 100 µM
TGI (UACC-62 melanoma): > 100 µM

COCCN1C2=CCCCC2=Nc2c1nc(N)[nH]c2=O
TGI (ACHN renal): > 100 µM
TGI (HOP-92 NSCLC): > 100 µM
TGI (M14 melanoma): > 100 µM
TGI (NCI-H460 lung): > 100 µM
TGI (RXF 393 renal): > 100 µM
TGI (SK-MEL-5 melanoma): > 100 µM
TGI (SNB-19 CNS): > 100 µM
TGI (UACC-62 melanoma): > 100 µM

Cc1ccncc1.[O]=[Ge].[O]=[Ge].[O]=[Ge].[O]=[Ge].[O]=[Ge].[O]=[Ge][OH].[O]=[Ge][OH]
GI50 (ACHN renal): > 100 µM
TGI (ACHN renal): > 100 µM
GI50 (HOP-92 NSCLC): > 100 µM
TGI (HOP-92 NSCLC): > 100 µM
GI50 (M14 melanoma): > 100 µM
TGI (M14 melanoma): > 100 µM
GI50 (NCI-H460 lung): > 100 µM
TGI (NCI-H460 lung): > 100 µM
GI50 (RXF 393 renal): > 100 µM
TGI (RXF 393 renal): > 100 µM
GI50 (SK-MEL-5 melanoma): > 100 µM
TGI (SK-MEL-5 melanoma): > 100 µM
GI50 (SNB-19 CNS): > 100 µM
TGI (SNB-19 CNS): > 100 µM
GI50 (UACC-62 melanoma): > 100 µM
TGI (UACC-62 melanoma): > 100 µM

O=C(O)c1ccc([Se][Se]c2ccc(C(=O)O)cc2)cc1
TGI (M14 melanoma): 35.6 µM
TGI (NCI-H460 lung): 54.9 µM
TGI (RXF 393 renal): 52.9 µM
TGI (SNB-19 CNS): > 100 µM
TGI (UACC-62 melanoma): 33.4 µM

O=Cc1cn(C(=O)c2ccccc2)c2ccccc12
TGI (ACHN renal): > 100 µM
TGI (M14 melanoma): > 100 µM
TGI (NCI-H460 lung): > 100 µM
TGI (RXF 393 renal): > 100 µM
TGI (SK-MEL-5 melanoma): > 100 µM
TGI (UACC-62 melanoma): > 100 µM

C=CCC1([C@H](C)[C@@H](OC(C)=O)c2cc(OC)c(OC)c(OC)c2)C[C@@H](OC)CCC1=O (stereo partly drawn)
TGI (ACHN renal): 41.4 µM
TGI (HOP-92 NSCLC): > 100 µM
TGI (M14 melanoma): 30.4 µM
TGI (NCI-H460 lung): 62.4 µM
TGI (RXF 393 renal): 26.6 µM
TGI (SK-MEL-5 melanoma): > 100 µM
TGI (UACC-62 melanoma): 34.9 µM

CC1CCCCc2nc3c(c(=O)n21)CCCC3 (stereo not drawn)
TGI (ACHN renal): > 100 µM
TGI (HOP-92 NSCLC): > 100 µM
TGI (M14 melanoma): > 100 µM
TGI (NCI-H460 lung): > 100 µM
TGI (SNB-19 CNS): > 100 µM
TGI (UACC-62 melanoma): > 100 µM

— PubChem BioAssay (NCI)
